From patent US20230295157A1, “3-(1H-IMIDAZOL-2-YL)-2,3,8,8A-TETRAHYDROINDOLIZIN-5(1H)-ONE DERIVATIVES USEFUL AS FACTOR XIA INHIBITORS” (JANSSEN PHARMACEUTICA NV, priority 2020, published 2023)

Legend:
[1] = target: human plasma kallikrein (Homo sapiens (Human), UniProt P03952); assay: Kallikrein inhibition assay (FLINT) utilizing a quenched AMC peptide substrate; assay type: biochemical; details: 30 min preincubation, kinetic reads over 30 min, Z-Gly-Pro-Arg-AMC substrate 50 μM; read-out: Kallikrein Kin Inh IC50
Summary of the method: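 Enzyme (2 nM final) pre-incubated 30 min at room temperature with compound (11-point, 3-fold, top 1 μM, 2% DMSO), then 50 μM Z-Gly-Pro-Arg-AMC added in Tris pH 7.5 buffer. Kinetic fluorescence 340/440 nm every 5 min over 30 min; IC50 from 4-parameter logistic fit.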

[2] = target: Factor XIa (Homo sapiens (Human), UniProt P03951); assay: Factor XIa inhibition assay (FLINT) utilizing a fluorophore-quencher pair peptide substrate; assay type: biochemical; details: 30 min preincubation, kinetic reads over 30 min, 5Fam-KLTRAETV-K5Tamra substrate 15 μM; read-out: FXIa Kin Inh IC50
Summary of the method: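 FXIa ([…]) preincubated 30 min with compound (11-point 3-fold dilution, top 100 nM, 2% DMSO), then 15 μM quenched FXI Arg146-based peptide added; Tris pH 7.5, CaCl2, BSA, CHAPS. Fluorescence 485/520 nm read kinetically every 5 min over 30 min at RT; IC50 by 4-parameter fit.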

Sequence of Factor XIa (P03951 388-625): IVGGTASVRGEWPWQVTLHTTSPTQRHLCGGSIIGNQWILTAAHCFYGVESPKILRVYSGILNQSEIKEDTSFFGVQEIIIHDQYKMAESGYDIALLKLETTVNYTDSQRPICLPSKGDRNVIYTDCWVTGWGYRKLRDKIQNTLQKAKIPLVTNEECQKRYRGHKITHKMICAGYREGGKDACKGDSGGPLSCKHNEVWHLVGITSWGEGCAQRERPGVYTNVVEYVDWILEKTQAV
Sequence of Factor XIa (P03951 19-387 partner): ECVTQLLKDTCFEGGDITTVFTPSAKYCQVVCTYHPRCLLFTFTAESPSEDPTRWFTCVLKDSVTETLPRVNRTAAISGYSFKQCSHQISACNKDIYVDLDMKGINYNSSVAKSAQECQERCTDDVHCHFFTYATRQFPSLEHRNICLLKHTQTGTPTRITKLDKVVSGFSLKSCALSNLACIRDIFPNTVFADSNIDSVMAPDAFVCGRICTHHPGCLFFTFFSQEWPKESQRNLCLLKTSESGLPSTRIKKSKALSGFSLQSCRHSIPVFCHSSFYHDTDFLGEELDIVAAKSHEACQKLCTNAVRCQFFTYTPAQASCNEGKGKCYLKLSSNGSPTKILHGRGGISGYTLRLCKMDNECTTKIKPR
Sequence of human plasma kallikrein (P03952 391-638): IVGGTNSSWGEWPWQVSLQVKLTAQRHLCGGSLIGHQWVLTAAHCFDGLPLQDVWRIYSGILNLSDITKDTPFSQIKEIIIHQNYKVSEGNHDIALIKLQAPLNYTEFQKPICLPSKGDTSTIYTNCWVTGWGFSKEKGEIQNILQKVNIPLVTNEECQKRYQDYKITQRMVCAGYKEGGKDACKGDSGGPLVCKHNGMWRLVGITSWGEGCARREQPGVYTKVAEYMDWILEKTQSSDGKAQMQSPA
Sequence of human plasma kallikrein (P03952 20-390 partner): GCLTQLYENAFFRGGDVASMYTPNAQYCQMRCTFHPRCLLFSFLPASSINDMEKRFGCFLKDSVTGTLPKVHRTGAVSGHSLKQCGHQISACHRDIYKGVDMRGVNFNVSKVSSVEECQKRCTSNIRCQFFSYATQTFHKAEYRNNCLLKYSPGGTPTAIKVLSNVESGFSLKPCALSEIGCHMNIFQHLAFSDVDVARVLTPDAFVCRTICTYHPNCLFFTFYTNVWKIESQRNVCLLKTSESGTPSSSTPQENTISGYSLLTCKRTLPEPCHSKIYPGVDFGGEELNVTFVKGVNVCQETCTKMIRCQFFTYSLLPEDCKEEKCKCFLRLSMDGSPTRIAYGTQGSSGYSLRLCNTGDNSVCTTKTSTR

With `CNc1ccc(-c2cnc([C@@H]3CCC4CC(c5c(-n6cnnn6)ccc(Cl)c5F)=CC(=O)N43)[nH]2)c(F)n1` (stereo partly drawn) [Example 368, (3S)-7-(3-chloro-2-fluoro-6-(1H-tetrazol-1-yl)phenyl)-3-(5-(2-fluoro-6-(methylamino)pyridin-3-yl)-1H-imidazol-2-yl)-2,3,8,8a-tetrahydroindolizin-5(1H)-one] the IC50 [1] was 7.4 nM and the IC50 [2] was 0.7 nM.

`O=C(Nc1ccccc1-c1c[nH]c([C@@H]2CC[C@@H]3CC(c4c(-n5cnnn5)ccc(Cl)c4F)=CC(=O)N32)n1)C1CC1` [Example 369, N-(2-(2-((3S,8aR)-7-(3-chloro-2-fluoro-6-(1H-tetrazol-1-yl)phenyl)-5-oxo-1,2,3,5,8,8a-hexahydroindolizin-3-yl)-1H-imidazol-4-yl)phenyl)cyclopropanecarboxamide] was tested, and the IC50 [1] was 0.5 nM and the IC50 [2] was 0.2 nM.

`O=C(Nc1cnccc1-c1c[nH]c([C@@H]2CCC3CC(c4c(-n5cnnn5)ccc(Cl)c4F)=CC(=O)N32)n1)C1CC1` (stereo partly drawn) [Example 370, N-(4-(2-((3S)-7-(3-chloro-2-fluoro-6-(1H-tetrazol-1-yl)phenyl)-5-oxo-1,2,3,5,8,8a-hexahydroindolizin-3-yl)-1H-imidazol-4-yl)pyridin-3-yl)cyclopropanecarboxamide] gave an IC50 [1] of 0.9 nM and an IC50 [2] of 0.2 nM.

`O=C1C=C(c2c(-n3cnnn3)ccc(Cl)c2F)C[C@H]2CC[C@@H](c3ncc(-c4cc(F)ncc4Cl)[nH]3)N12` [Example 371, (3S,8aR)-7-(3-chloro-2-fluoro-6-(1H-tetrazol-1-yl)phenyl)-3-(5-(5-chloro-2-fluoropyridin-4-yl)-1H-imidazol-2-yl)-2,3,8,8a-tetrahydroindolizin-5(1H)-one] showed an IC50 [1] of 56.5 nM and an IC50 [2] of 36.3 nM.

`Nc1cc(-c2[nH]c([C@@H]3CC[C@@H]4CC(c5c(-n6cnnn6)ccc(Cl)c5F)=CC(=O)N43)nc2Cl)ccn1` [Example 372, (3S,8aR)-3-(5-(2-aminopyridin-4-yl)-4-chloro-1H-imidazol-2-yl)-7-(3-chloro-2-fluoro-6-(1H-tetrazol-1-yl)phenyl)-2,3,8,8a-tetrahydroindolizin-5(1H)-one] was tested, and the IC50 [1] was 1.2 nM and the IC50 [2] was 0.3 nM.

`O=C(O)c1ccc(-c2c[nH]c(C3CCC4CC(c5cc(Cl)ccc5-n5cc(C(F)(F)F)nn5)=CC(=O)N43)n2)s1` (stereo not shown) [Example 373, 5-(2-(7-(5-chloro-2-(4-(trifluoromethyl)-1H-1,2,3-triazol-1-yl)phenyl)-5-oxo-1,2,3,5,8,8a-hexahydroindolizin-3-yl)-1H-imidazol-4-yl)thiophene-2-carboxylic acid] gave an IC50 [1] of 39.6 nM and an IC50 [2] of 0.7 nM.

`CC1=CCc2c(-c3cnc(C4CCC5CC(c6c(-n7cnnn7)ccc(Cl)c6F)=CC(=O)N54)[nH]3)ccnc21` (stereo not shown) [Example 374, 7-(3-chloro-2-fluoro-6-(1H-tetrazol-1-yl)phenyl)-3-(5-(7-methyl-5H-cyclopenta[b]pyridin-4-yl)-1H-imidazol-2-yl)-2,3,8,8a-tetrahydroindolizin-5(1H)-one] was tested, and the IC50 [1] was 1.5 nM and the IC50 [2] was 0.8 nM.

`Nc1ccc(-c2cnc([C@@H]3CC[C@@H]4CC(c5cc(Cl)ccc5-n5cnnn5)CC(=O)N43)[nH]2)c(F)n1` (stereo partly drawn) [Example 376, (3S,8aR)-3-(5-(6-amino-2-fluoropyridin-3-yl)-1H-imidazol-2-yl)-7-(5-chloro-2-(1H-tetrazol-1-yl)phenyl)hexahydroindolizin-5(1H)-one] gave an IC50 [1] of 209 nM and an IC50 [2] of 7.3 nM.

`O=C1C[C@H](c2c(-n3cnnn3)ccc(Cl)c2F)C[C@H]2CC[C@@H](c3ncc(-c4ccnc(CO)c4F)[nH]3)N12` [Example 378, (3S,7R,8aR)-7-(3-chloro-2-fluoro-6-(1H-tetrazol-1-yl)phenyl)-3-(5-(3-fluoro-2-(hydroxymethyl)pyridin-4-yl)-1H-imidazol-2-yl)hexahydroindolizin-5(1H)-one] showed an IC50 [1] of 115 nM and an IC50 [2] of 14.5 nM.

`O=C1C=C(c2c(-n3cnnn3)ccc(Cl)c2F)C[C@H]2CC[C@@H](c3ncc(-c4c[nH]c5ncncc45)[nH]3)N12` [Example 379, (3S,8aR)-3-(5-(7H-pyrrolo[2,3-d]pyrimidin-5-yl)-1H-imidazol-2-yl)-7-(3-chloro-2-fluoro-6-(1H-tetrazol-1-yl)phenyl)-2,3,8,8a-tetrahydroindolizin-5(1H)-one] gave an IC50 [1] of 2.2 nM and an IC50 [2] of 0.6 nM.

`Nc1nccc(-c2cnc([C@@H]3CC[C@@H]4CC(c5c(-n6cnnn6)ccc(Cl)c5F)=CC(=O)N43)[nH]2)c1Cl` [Example 380, (3S,8aR)-3-(5-(2-amino-3-chloropyridin-4-yl)-1H-imidazol-2-yl)-7-(3-chloro-2-fluoro-6-(1H-tetrazol-1-yl)phenyl)-2,3,8,8a-tetrahydroindolizin-5(1H)-one] was tested, and the IC50 [1] was 4.2 nM and the IC50 [2] was 0.8 nM.

Compound `Cc1cc2c(-c3cnc([C@@H]4CCC5CC(c6c(-n7cnnn7)ccc(Cl)c6F)=CC(=O)N54)[nH]3)c[nH]c2cn1` (stereo partly drawn) [Example 381, (3S)-7-(3-chloro-2-fluoro-6-(1H-tetrazol-1-yl)phenyl)-3-(5-(5-methyl-1H-pyrrolo[2,3-c]pyridin-3-yl)-1H-imidazol-2-yl)-2,3,8,8a-tetrahydroindolizin-5(1H)-one] has an IC50 [1] of 13.6 nM and an IC50 [2] of 17.1 nM.

Compound `O=C1Cc2ccc(-c3cnc([C@@H]4CCC5CC(c6c(-n7cnnn7)ccc(Cl)c6F)=CC(=O)N54)[nH]3)c(F)c2N1` (stereo partly drawn) [Example 383, 6-(2-((3S)-7-(3-chloro-2-fluoro-6-(1H-tetrazol-1-yl)phenyl)-5-oxo-1,2,3,5,8,8a-hexahydroindolizin-3-yl)-1H-imidazol-5-yl)-7-fluoroindolin-2-one] has an IC50 [1] of 12.6 nM and an IC50 [2] of 3.1 nM.

For `O=C1C=C(c2c(-n3cnnn3)ccc(Cl)c2F)C[C@H]2CC[C@@H](c3ncc(-c4ccc5cc[nH]c5c4F)[nH]3)N12` [Example 384, (3S,8aR)-7-(3-chloro-2-fluoro-6-(1H-tetrazol-1-yl)phenyl)-3-(5-(7-fluoro-1H-indol-6-yl)-1H-imidazol-2-yl)-2,3,8,8a-tetrahydroindolizin-5(1H)-one], the IC50 [1] was 6.6 nM and the IC50 [2] was 1.7 nM.

With `O=C1C=C(c2c(-n3cc(C(F)(F)F)nn3)ccc(Cl)c2F)C[C@H]2CC[C@@H](c3ncc(-c4c[nH]c5ccncc45)[nH]3)N12` [Example 385, (3S,8aR)-3-(5-(1H-pyrrolo[3,2-c]pyridin-3-yl)-1H-imidazol-2-yl)-7-(3-chloro-2-fluoro-6-(4-(trifluoromethyl)-1H-1,2,3-triazol-1-yl)phenyl)-2,3,8,8a-tetrahydroindolizin-5(1H)-one] the IC50 [1] was 26.8 nM and the IC50 [2] was 3.6 nM.

For `O=C1C=C(c2c(-n3cnnn3)ccc(Cl)c2F)C[C@H]2CC[C@@H](c3ncc(-c4ccnc5c4CCO5)[nH]3)N12` [Example 386, (3S,8aR)-7-(3-chloro-2-fluoro-6-(1H-tetrazol-1-yl)phenyl)-3-(5-(2,3-dihydrofuro[2,3-b]pyridin-4-yl)-1H-imidazol-2-yl)-2,3,8,8a-tetrahydroindolizin-5(1H)-one], the IC50 [1] was 9.5 nM and the IC50 [2] was 1.3 nM.

For `O=C1C=C(c2c(-n3cnnn3)ccc(Cl)c2F)C[C@H]2CC[C@@H](c3ncc(-c4ccnc5ccsc45)[nH]3)N12` [Example 387, (3S,8aR)-7-(3-chloro-2-fluoro-6-(1H-tetrazol-1-yl)phenyl)-3-(5-(thieno[3,2-b]pyridin-7-yl)-1H-imidazol-2-yl)-2,3,8,8a-tetrahydroindolizin-5(1H)-one], the IC50 [1] was 3.8 nM and the IC50 [2] was 1.3 nM.
